In patent publication US10683352B1, “Methods for treating cancer using GRM8 inhibitors” (Flagship Pioneering Innovations V, Inc., priority 2018, dated 2020):

Test system: M2-like macrophages
Test: IL-8 secretion by monocyte-derived macrophages treated with mGluR8 agonist (LEGENDplex bead-based immunoassay)
Assay type: cell-based, human
Conditions: supernatant; for Fold change of IL-8 (Normalized to M2-like Macs + LPS with no compound treatment): human monocyte-derived macrophages, LEGENDplex
Protocol: CD14+ monocytes were isolated from human PBMCs using negative magnetic bead selection (Stemcell Technologies) on day 0. Cells were cultured with M-CSF to differentiate monocytes to macrophages. On day 6, cells were treated with L-AP4 (selective group III metabotropic glutamate receptor agonist) (Sigma-Aldrich), at concentrations 1 μM and 10 μM overnight. Supernatant was collected and LEGENDplex™ bead-based immunoassays (Biolegend) were performed to detect for changes in cytokines secreted.
Secretion of the inflammatory cytokine, IL-8, was decreased with the addition of the mGluR8 agonist in M2-like macrophages, consistent across multiple donors, as shown in Table 17 below.

NC(CCP(=O)(O)O)C(=O)O [L-AP4]
Fold change of IL-8 (Normalized to M2-like Macs + LPS with no compound treatment) (M2-like Macs + L-AP4 1 μM overnight): 0.646 | Fold change of IL-8 (Normalized to M2-like Macs + LPS with no compound treatment) (M2-like Macs + L-AP4 10 μM overnight): 0.866 | Secretion of the inflammatory cytokine IL-8 (macrophages differentiated with M-CSF from CD14+ monocytes of human PBMCs, L-AP4 at 1 μM and 10 μM overnight, multiple donors): decreased
